Experimental findings from ChEMBL document CHEMBL4842346, “Improving the metabolic stability of antifungal compounds based on a scaffold hopping strategy: Design, synthesis, and structure-activity relationship studies of dihydrooxazole derivatives” (Eur J Med Chem, 2021) are described below.

≈ marks a conversion by molar mass, not a printed value. A value given as a limit tells only on which side of the number the result lay.

Series [1] relates to Candida tropicalis. As to the kind of experiment: Antifungal activity against Candida tropicalis GIM2.183 assessed as inhibition of fungal growth by NCCLS protocol based method. The series is classed as functional.
Series [2] concerns Cryptococcus neoformans. Put plainly: Antifungal activity against Cryptococcus neoformans GIM2.209 assessed as inhibition of fungal growth by NCCLS protocol based method. It is filed as functional.
The subject of series [3] is Candida albicans. As to the kind of experiment: Antifungal activity against Candida albicans SC5314 assessed as inhibition of fungal growth by NCCLS protocol based method. It is filed as functional.
The test system of series [4] is Candida albicans. Put plainly: Antifungal activity against Candida albicans CPCC400523 assessed as inhibition of fungal growth by NCCLS protocol based method. It is filed as functional.
For series [5], the system named is Cryptococcus neoformans. As to the kind of experiment: Antifungal activity against Cryptococcus neoformans CGMCC2.3161 assessed as inhibition of fungal growth by NCCLS protocol based method. The series is classed as functional.
Series [6] has as its system Aspergillus fumigatus. As to the kind of experiment: Antifungal activity against Aspergillus fumigatus CGMCC3.7795 assessed as inhibition of fungal growth by NCCLS protocol based method. The series is classed as functional.
For series [7], the system named is Candida albicans. Put plainly: Antifungal activity against Candida albicans GIM2.194 assessed as inhibition of fungal growth by NCCLS protocol based method. The series is classed as functional.
The subject of series [8] is Pichia kudriavzevii. As to the kind of experiment: Antifungal activity against Candida krusei GIM2.1 assessed as inhibition of fungal growth by NCCLS protocol based method. The series is classed as functional.
The test system of series [9] is Candida parapsilosis. As to the kind of experiment: Antifungal activity against Candida parapsilosis GIM2.190 assessed as inhibition of fungal growth by NCCLS protocol based method. The series is classed as functional. Particulars: Lodderomyces parapsilosis.
In series [10] the test system is Candida albicans. Put plainly: Antifungal activity against fluconazole resistant Candida albicans CaR assessed as inhibition of fungal growth by NCCLS protocol based method. It is filed as functional.
Series [11] has as its system Candida albicans. Put plainly: Antifungal activity against fluconazole and itraconazole resistant Candida albicans 17# assessed as inhibition of fungal growth by NCCLS protocol based method. The series is classed as functional.
Series [12] has as its target T1, Lanosterol 14-alpha demethylase (Candida albicans (strain SC5314 / ATCC MYA-2876) (Yeast), UniProt P10613). As to the kind of experiment: Inhibition of Candida albicans CYP51 assessed as lanosterol level at 0.25 ug/ml measured after 18 hrs by GC-MS analysis relative to control. To be noted: at 0.25 µg/mL. On the set-up: scale not given: the % may be the effect or the level left.

In series [13] the target is T1, Lanosterol 14-alpha demethylase. As to the kind of experiment: Inhibition of Candida albicans CYP51 assessed as ergosterol level at 0.25 ug/ml measured after 18 hrs by GC-MS analysis relative to control. Particulars: at 0.25 µg/mL. On the set-up: scale not given: the % may be the effect or the level left.
The target is the same in series [14]. Put plainly: Inhibition of Candida albicans CYP51 assessed as eburicol level at 0.25 ug/ml measured after 18 hrs by GC-MS analysis relative to control. Particulars: at 0.25 µg/mL. Also noted: scale not given: the % may be the effect or the level left.
Series [15] has the same target. As to the kind of experiment: Inhibition of Candida albicans CYP51 assessed as 14alpha-methylergosta-8,24(28)-dien3beta-6alpha-diol level at 0.25 ug/ml measured after 18 hrs by GC-MS analysis relative to control. Particulars: at 0.25 µg/mL. Also noted: scale not given: the % may be the effect or the level left.
Series [16] has the same target. Put plainly: Inhibition of Candida albicans CYP51 assessed as unknown sterol level at 0.25 ug/ml measured after 18 hrs by GC-MS analysis relative to control. Also noted: scale not given: the % may be the effect or the level left. Particulars: at 0.25 µg/mL.

T1 sequence (P10613 whole entry): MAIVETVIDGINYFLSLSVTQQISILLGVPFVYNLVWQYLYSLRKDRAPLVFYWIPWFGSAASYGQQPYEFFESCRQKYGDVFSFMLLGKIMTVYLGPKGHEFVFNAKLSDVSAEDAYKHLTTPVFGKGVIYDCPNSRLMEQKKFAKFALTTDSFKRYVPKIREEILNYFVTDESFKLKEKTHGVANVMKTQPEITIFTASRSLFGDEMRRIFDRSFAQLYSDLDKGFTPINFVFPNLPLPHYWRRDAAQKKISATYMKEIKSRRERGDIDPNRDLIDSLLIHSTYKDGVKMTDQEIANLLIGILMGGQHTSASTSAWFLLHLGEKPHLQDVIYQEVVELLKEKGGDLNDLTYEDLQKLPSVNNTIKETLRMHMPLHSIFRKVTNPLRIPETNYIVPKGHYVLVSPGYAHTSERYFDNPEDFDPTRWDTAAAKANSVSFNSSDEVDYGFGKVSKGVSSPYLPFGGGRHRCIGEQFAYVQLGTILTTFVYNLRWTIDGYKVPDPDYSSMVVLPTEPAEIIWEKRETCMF

In general, MIC refers to the lowest concentration found to suppress growth. As to `OC(Cn1cncn1)(Cn1cncn1)c1ccc(F)cc1F` [FLUCONAZOLE], the MIC is 1 µg/mL (≈ 3.27 µM) in series [1]; 4 µg/mL (≈ 13.1 µM) in series [2]; 0.5 µg/mL (≈ 1.63 µM) in series [3]; 1 µg/mL (≈ 3.27 µM) in series [4]; 4 µg/mL (≈ 13.1 µM) in series [5]; above 64 µg/mL in series [6]. Moreover, the MIC in series [7] is 1 µg/mL (≈ 3.27 µM); in series [8], 8 µg/mL (≈ 26.1 µM); in series [9], 2 µg/mL (≈ 6.53 µM); in series [10], above 64 µg/mL; in [11], above 64 µg/mL. In addition, the Activity in series [12] is 15.13%; in [13], 34.27%; in series [14], 7.57%; in series [15], 30.66%; in [16], 1.91%.
